One assay has as its system Mus musculus. Description: Compound was evaluated in vivo against Plasmodium berghei in mice (Mus musculus) after oral administration. The assay is classed as functional.
The test system of a further assay is Rattus norvegicus. Kind of assay: Percent decrease in blood pressure in conscious hypertensive rats, at a dose of 100 mg. Format: functional.

Molecules are shown by their SMILES.

In general, ED50 refers to the midpoint of the dose-response relation. The low end stands for greater potency, the high end for weaker potency. Take `Cl.O[C@@H](c1cc(C(F)(F)F)nc2c(C(F)(F)F)cccc12)[C@H]1CCCCN1` [MEFLOQUINE HYDROCHLORIDE]: the ED50 with Mus musculus turned out to be 1.8 mg/kg. Regarding `Cl.O[C@H](c1cc(C(F)(F)F)nc2c(C(F)(F)F)cccc12)[C@@H]1CCCN1` (single isomer, unassigned), the ED50 in the assay with Mus musculus was determined as 1.8 mg/kg. In addition, in the assay with Rattus norvegicus, the Decrease is given as 15%.

The values above are taken from ChEMBL document CHEMBL1126331, “Nor-mefloquine: Stereospecific synthesis and biological properties” (1992).
